This assay relates to Jurkat cells. The assay is described as follows: Detection of reactive oxygen generation in cells treated with menadione or 4-aminobiphenyl, Jurkat. To be noted: for averaged bioluminescence: 60 minutes 37° C. It is filed as cell-based. As to the method:
In this example, various compounds shown to react with hydrogen peroxide were incubated with cells treated with menadione and 4-aminobiphenyl, two compounds that can generate reactive oxygen species (ROS). Menadione causes the direct production of reactive oxygen within the cell and is a very strong inducer of a ROS effect (Sun, J S et. al. Cell Mol Life Sci (1997) vol 53 pp 967-76). 4-aminobiphenyl is believed to require metabolic conversion to a quinine-like structure before being able to induce the formation of a ROS (Makena, P and Chung, K T. Environ. Mol. Mutagen. (2007), vol 48, pp 404-413).
A 40 mM solution of 4-aminobiphenyl (Sigma A2898-1g) was made by dissolving 2.5 mg in 375 μl of DMSO (Fluka) to create a 40 mM solution. 50 μl of 4 mg/ml PBI 4458 in DMSO was diluted to 1 ml with HBSS buffer (Invitrogen), and 100 μl added to wells A1 and A2 of a microtiter plate. A 10 μl sample of 40 mM 4-aminobiphenyl was mixed with 190 μl of the remaining PBI 4458 in HBSS, and 60 μl added to wells B1 and B2 and 30 μl to wells C1 and C2. A 10 μl sample of 40 mM menadione in DMSO was mixed with 190 μl of the remaining PBI 4458 in HBSS, and 60 μl added to wells D1 and D2 and 30 μl to E1 and E2. The volume in wells B1 to E2 was then adjusted to 100 μl by addition of remaining PBI 4458 in HBSS.
50 μl of 4 mg/ml PBI 4480 in DMSO was diluted to 1 ml with HBSS buffer, and 100 μl placed in wells A3 and A4 of the microtiter plate. A 10 μl sample of 40 mM 4 aminobiphenyl was mixed with 190 μl of the remaining PBI 4480 in HBSS, and 60 μl added to wells B3 and B4 and 30 μl to wells C3 and C4. A 10 μl sample of 40 mM menadione in DMSO was mixed with 190 μl of the remaining PBI 4480 in HBSS, and 60 μl added to wells D3 and D4 and 30 μl added to wells E3 and E4. The volume in wells B3 to E4 was then adjusted to 100 μl by addition of left over PBI 4480 in HBSS.
50 μl of 4 mg/ml PBI 3048 in DMSO was diluted to 1 ml with HBSS, and 100 μl added to wells A5 and A6 of the microtiter plate. A 10 μl sample of 40 mM 4 aminobiphenyl was mixed with 190 μl of the remaining PBI 3048 in HBSS, and 60 μl added to wells B5 and B6 and 30 μl added to wells C5 and C6. A 10 μl sample of 40 mM menadione in DMSO was mixed with 190 μl of the remaining PBI 3048 in HBSS, and 60 μl added to wells D5 and D6 and 30 μl added to wells E5 and E6. The volume in wells B5 to E6 was then adjusted to 100 μl by addition of the remaining PBI 3048 in HBSS.
Two cell culture plates were seeded with cells resuspended in HBSS. One plate contained 20,000 Jurkat cells/well in wells A1-H6. The other plate contained 20,000 HepG2 cells/well in wells A1-H6. Both plates were incubated overnight in DMEM with 10% fetal bovine serum (FBS). The media from the HepG2 cells was removed, discarded, and replaced with 50 μl of HBSS. A 50 μl sample of wells A1-H6 from the plate with the various PBI compounds was transferred to the corresponding wells in the two cell culture plates, and incubated for 60 minutes in a 37° C., 5% CO2 incubator.
50 μl of LDR (Example 23) and 25 μl of 1 mM D-cysteine in 100 mM HEPES buffer, pH 7.5 was added to all wells of a new luminometer plate. After incubation, a 25 μl sample of wells A1-H6 containing Jurkat cells was added to wells A1-H6 of the new luminometer plate, and a 25 μl sample of wells A1-H6 containing HepG2 cells was added to wells A7-H12 of the new luminometer plate. The plate was incubated at room temperature for 15 minutes, and bioluminescence detected on a GloMax® luminometer.
The bioluminescence from the duplicate samples was averaged and compared to the values of the cells in A row (Table 4).

For `O=C(O)C1CSC(c2nc3ccc(OCc4ccc(B(O)O)cc4)cc3s2)=N1` (stereo not drawn) [PBI 3048], the “response of signal to menadione or 4-aminobiphenyl (in words)” value (“response of signal” for short) was “do not show as clear of a response”. Moreover, under “300 μM 4ABP”, the averaged bioluminescence was 363,182. Where the note is “300 μM Menadione”, the averaged bioluminescence is 434,344. For the same compound, the averaged bioluminescence (600 μM 4ABP) is reported as 366,188. Also, the averaged bioluminescence (600 μM Menadione) was 403,013. Moreover, where the note is “No Effector”, the averaged bioluminescence is 413,753.

With `CC1(C)OB(/C=C/COc2ccc3nc(C#N)sc3c2)OC1(C)C` [PBI 4458, (E)-6-((3-(4,4,5,5-tetramethyl-1,3,2-dioxaborolan-2-yl)allyl)oxy)-benzo[d]thiazole-2-carbonitrile], the “response of signal” value is given as “above those for the cells that were not given any effector”. Also, under “300 μM 4ABP”, the averaged bioluminescence is listed as 213,059. For the same compound, for the setting “300 μM Menadione”, the averaged bioluminescence was 742,717. For the same compound, the averaged bioluminescence (600 μM 4ABP) is given as 195,096. The averaged bioluminescence (600 μM Menadione) is listed as 895,269. In addition, the averaged bioluminescence (No Effector) is 174,206.

For `CC1(C)OB(c2ccc(COc3ccc4nc(C#N)sc4c3)c3ccccc23)OC1(C)C` [PBI 4480, 6-((4-(4,4,5,5-tetramethyl-1,3,2-dioxaborolan-2-yl)naphthalen-1-yl)methoxy)benzo[d]thiazole-2-carbonitrile], the “response of signal” value is on record as “do not show as clear of a response”. Besides, the averaged bioluminescence (300 μM 4ABP) was 29,810. Besides, the averaged bioluminescence (300 μM Menadione) is reported as 29,806. Besides, for the setting “600 μM 4ABP”, the averaged bioluminescence is on record as 29,277. For the setting “600 μM Menadione”, the averaged bioluminescence is given as 27,535. For the same compound, the averaged bioluminescence (No Effector) was 34,646.

The values above are taken from US8937183B2, “Detection of hydrogen peroxide” (Promega Corporation, priority 2011, dated 2015).
